Source: PubChem BioAssay AID248 (DTP/NCI, 2004)
Values joined by “and” are separate entries in the source; they are usually repeats but may differ in a detail not shown here. Equal values may be shown once. Inconclusive results and toxic doses are left out. Cut-off read from the data, not from the text of the source: active = T/C of 150% or more; inactive = T/C below 125%.

Test system: L1210 leukemia ip in BDF1 mice, survival T/C
Test: NCI In Vivo Anticancer Drug Screen. Data for tumor model L1210 Leukemia (intraperitoneal) in B6D2F1 (BDF1) mice
Details: higher = longer survival
In short: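 Survival endpoint. Drug-treated group vs vehicle group, expressed as T divided by C. Tumor passaged by transplantation.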

[1] = endpoint: mean survival time, dose: 100.0 mg/kg/injection, schedule: Q01DX009 (ip), vehicle: Klucel (hydroxypropylcellulose) (HPC)
[2] = endpoint: mean survival time, dose: 100.0 mg/kg/injection, schedule: Q04DX003 (ip), vehicle: saline with Tween-80
[3] = endpoint: mean survival time, dose: 200.0 mg/kg/injection, schedule: Q01DX009 (ip), vehicle: Klucel (hydroxypropylcellulose) (HPC)
[4] = endpoint: mean survival time, dose: 200.0 mg/kg/injection, schedule: Q04DX003 (ip), vehicle: saline with Tween-80
[5] = endpoint: mean survival time, dose: 400.0 mg/kg/injection, schedule: Q01DX009 (ip), vehicle: Klucel (hydroxypropylcellulose) (HPC)
[6] = endpoint: mean survival time, dose: 400.0 mg/kg/injection, schedule: Q04DX003 (ip), vehicle: saline with Tween-80

Measured: T/C

C[C@]12C=CC(=O)C=C1CC[C@@H]1[C@@H]2C(=O)C[C@@]2(C)[C@H]1CC[C@]2(O)C(=O)CO
inactive: endpoint: mean survival time, dose: 0.25 mg/kg/injection, schedule: Q01DX009 (ip), vehicle: water 99 % of control | endpoint: mean survival time, dose: 0.5 mg/kg/injection, schedule: Q01DX009 (ip), vehicle: water 103 % of control | endpoint: mean survival time, dose: 1.0 mg/kg/injection, schedule: Q01DX009 (ip), vehicle: water 96 % of control and 97 % of control | endpoint: mean survival time, dose: 2.0 mg/kg/injection, schedule: Q01DX009 (ip), vehicle: water 99 % of control and 101 % of control | endpoint: mean survival time, dose: 2.5 mg/kg/injection, schedule: Q01DX009 (ip), vehicle: water 101 % of control | endpoint: mean survival time, dose: 5.0 mg/kg/injection, schedule: Q01DX009 (ip), vehicle: water 104 % of control | endpoint: mean survival time, dose: 6.25 mg/kg/injection, schedule: Q01DX014 (sc), vehicle: steriod suspending solution 103 % of control and 104 % of control | endpoint: mean survival time, dose: 12.5 mg/kg/injection, schedule: Q01DX014 (sc), vehicle: steriod suspending solution 100 % of control and 109 % of control | endpoint: mean survival time, dose: 25.0 mg/kg/injection, schedule: Q01DX014 (sc), vehicle: steriod suspending solution 103 % of control and 105 % of control | endpoint: mean survival time, dose: 25.0 mg/kg/injection, schedule: Q01DX Z (sc), vehicle: steriod suspending solution 97 % of control and 102 % of control and 108 % of control | endpoint: mean survival time, dose: 50.0 mg/kg/injection, schedule: Q01DX009 (ip), vehicle: saline with Tween-80 102 % of control | endpoint: mean survival time, dose: 50.0 mg/kg/injection, schedule: Q01DX Z (sc), vehicle: steriod suspending solution 100 % of control (2×) and 112 % of control | [1] 107 % of control | endpoint: mean survival time, dose: 100.0 mg/kg/injection, schedule: Q01DX009 (ip), vehicle: saline with Tween-80 97 % of control | endpoint: mean survival time, dose: 100.0 mg/kg/injection, schedule: Q01DX009 (ip), vehicle: saline 100 % of control | endpoint: mean survival time, dose: 100.0 mg/kg/injection, schedule: Q01DX009 (ip), vehicle: steriod suspending solution 104 % of control | endpoint: mean survival time, dose: 100.0 mg/kg/injection, schedule: Q01DX009 (sc), vehicle: Klucel (hydroxypropylcellulose) (HPC) 91 % of control | endpoint: mean survival time, dose: 100.0 mg/kg/injection, schedule: Q01DX009 (sc), vehicle: saline 97 % of control | endpoint: mean survival time, dose: 100.0 mg/kg/injection, schedule: Q01DX009 (sc), vehicle: steriod suspending solution 100 % of control | endpoint: mean survival time, dose: 100.0 mg/kg/injection, schedule: Q01DX Z (sc), vehicle: steriod suspending solution 98 % of control and 101 % of control | [2] 106 % of control | endpoint: mean survival time, dose: 120.0 mg/kg/injection, schedule: Q01DX001 (sc), vehicle: steriod suspending solution 106 % of control | endpoint: mean survival time, dose: 180.0 mg/kg/injection, schedule: Q01DX001 (sc), vehicle: steriod suspending solution 107 % of control | [3] 100 % of control | endpoint: mean survival time, dose: 200.0 mg/kg/injection, schedule: Q01DX009 (ip), vehicle: saline with Tween-80 102 % of control | endpoint: mean survival time, dose: 200.0 mg/kg/injection, schedule: Q01DX009 (ip), vehicle: saline 104 % of control | endpoint: mean survival time, dose: 200.0 mg/kg/injection, schedule: Q01DX009 (ip), vehicle: steriod suspending solution 104 % of control | endpoint: mean survival time, dose: 200.0 mg/kg/injection, schedule: Q01DX009 (sc), vehicle: Klucel (hydroxypropylcellulose) (HPC) 110 % of control | endpoint: mean survival time, dose: 200.0 mg/kg/injection, schedule: Q01DX009 (sc), vehicle: saline 105 % of control | endpoint: mean survival time, dose: 200.0 mg/kg/injection, schedule: Q01DX009 (sc), vehicle: steriod suspending solution 102 % of control | endpoint: mean survival time, dose: 200.0 mg/kg/injection, schedule: Q01DX Z (sc), vehicle: steriod suspending solution 94 % of control and 96 % of control | [4] 98 % of control | endpoint: mean survival time, dose: 240.0 mg/kg/injection, schedule: Q01DX001 (sc), vehicle: steriod suspending solution 104 % of control | [5] 100 % of control | endpoint: mean survival time, dose: 400.0 mg/kg/injection, schedule: Q01DX009 (ip), vehicle: saline 101 % of control | endpoint: mean survival time, dose: 400.0 mg/kg/injection, schedule: Q01DX009 (ip), vehicle: steriod suspending solution 89 % of control | endpoint: mean survival time, dose: 400.0 mg/kg/injection, schedule: Q01DX009 (sc), vehicle: Klucel (hydroxypropylcellulose) (HPC) 97 % of control | endpoint: mean survival time, dose: 400.0 mg/kg/injection, schedule: Q01DX009 (sc), vehicle: saline 109 % of control | endpoint: mean survival time, dose: 400.0 mg/kg/injection, schedule: Q01DX009 (sc), vehicle: steriod suspending solution 96 % of control | endpoint: mean survival time, dose: 400.0 mg/kg/injection, schedule: Q01DX Z (sc), vehicle: steriod suspending solution 100 % of control | [6] 104 % of control | endpoint: mean survival time, dose: 500.0 mg/kg/injection, schedule: Q01DX001 (ip), vehicle: water 98 % of control and 103 % of control | endpoint: mean survival time, dose: 800.0 mg/kg/injection, schedule: Q01DX009 (ip), vehicle: Klucel (hydroxypropylcellulose) (HPC) 105 % of control | endpoint: mean survival time, dose: 800.0 mg/kg/injection, schedule: Q01DX009 (ip), vehicle: saline 110 % of control | endpoint: mean survival time, dose: 800.0 mg/kg/injection, schedule: Q01DX009 (ip), vehicle: steriod suspending solution 95 % of control | endpoint: mean survival time, dose: 800.0 mg/kg/injection, schedule: Q01DX009 (sc), vehicle: Klucel (hydroxypropylcellulose) (HPC) 103 % of control | endpoint: mean survival time, dose: 800.0 mg/kg/injection, schedule: Q01DX009 (sc), vehicle: saline 104 % of control | endpoint: mean survival time, dose: 800.0 mg/kg/injection, schedule: Q01DX009 (sc), vehicle: steriod suspending solution 102 % of control | endpoint: mean survival time, dose: 1000.0 mg/kg/injection, schedule: Q01DX001 (ip), vehicle: water 97 % of control and 102 % of control | endpoint: mean survival time, dose: 2000.0 mg/kg/injection, schedule: Q01DX001 (ip), vehicle: water 96 % of control and 109 % of control | endpoint: median survival time, dose: 25.0 mg/kg/injection, schedule: Q01DX009 (ip), vehicle: water 100 % of control and 90 % of control | endpoint: median survival time, dose: 50.0 mg/kg/injection, schedule: Q01DX009 (ip), vehicle: water 95 % of control and 100 % of control | endpoint: median survival time, dose: 100.0 mg/kg/injection, schedule: Q01DX009 (ip), vehicle: water 95 % of control and 100 % of control | endpoint: median survival time, dose: 108.0 mg/kg/injection, schedule: Q01DX009 (ip), vehicle: water 100 % of control and 90 % of control | endpoint: median survival time, dose: 180.0 mg/kg/injection, schedule: Q01DX009 (ip), vehicle: water 95 % of control and 90 % of control | endpoint: median survival time, dose: 200.0 mg/kg/injection, schedule: Q01DX009 (ip), vehicle: water 95 % of control and 100 % of control | endpoint: median survival time, dose: 300.0 mg/kg/injection, schedule: Q01DX009 (ip), vehicle: water 100 % of control | endpoint: median survival time, dose: 375.0 mg/kg/injection, schedule: Q01DX001 (ip), vehicle: water 100 % of control | endpoint: median survival time, dose: 400.0 mg/kg/injection, schedule: Q01DX009 (ip), vehicle: water 95 % of control and 110 % of control | endpoint: median survival time, dose: 400.0 mg/kg/injection, schedule: Q04DX003 (ip), vehicle: saline 111 % of control | endpoint: median survival time, dose: 500.0 mg/kg/injection, schedule: Q01DX009 (ip), vehicle: water 90 % of control | endpoint: median survival time, dose: 600.0 mg/kg/injection, schedule: Q04DX003 (ip), vehicle: saline 104 % of control | endpoint: median survival time, dose: 750.0 mg/kg/injection, schedule: Q01DX001 (ip), vehicle: water 100 % of control | endpoint: median survival time, dose: 800.0 mg/kg/injection, schedule: Q01DX009 (ip), vehicle: water 100 % of control | endpoint: median survival time, dose: 833.0 mg/kg/injection, schedule: Q01DX009 (ip), vehicle: water 90 % of control | endpoint: median survival time, dose: 1388.0 mg/kg/injection, schedule: Q01DX009 (ip), vehicle: water 90 % of control | endpoint: median survival time, dose: 1500.0 mg/kg/injection, schedule: Q01DX001 (ip), vehicle: water 100 % of control | endpoint: median survival time, dose: 3000.0 mg/kg/injection, schedule: Q01DX001 (ip), vehicle: water 100 % of control and 102 % of control

Cc1cc(N(CCO)CCO)c(C)cc1NC(=O)c1ccccc1
inactive: endpoint: mean survival time, dose: 100.0 mg/kg/injection, schedule: Q01DX001 (ip), vehicle: carboxymethylcellulose (CMC) 106 % of control | endpoint: mean survival time, dose: 200.0 mg/kg/injection, schedule: Q01DX001 (ip), vehicle: carboxymethylcellulose (CMC) 101 % of control | endpoint: mean survival time, dose: 400.0 mg/kg/injection, schedule: Q01DX001 (ip), vehicle: carboxymethylcellulose (CMC) 94 % of control

O=C(NCCc1ccccc1)c1ccc(Cl)cc1
inactive: endpoint: mean survival time, dose: 100.0 mg/kg/injection, schedule: Q04DX002 (ip), vehicle: Klucel (hydroxypropylcellulose) (HPC) 115 % of control | endpoint: mean survival time, dose: 200.0 mg/kg/injection, schedule: Q04DX002 (ip), vehicle: Klucel (hydroxypropylcellulose) (HPC) 92 % of control | endpoint: mean survival time, dose: 400.0 mg/kg/injection, schedule: Q04DX002 (ip), vehicle: Klucel (hydroxypropylcellulose) (HPC) 89 % of control

Nc1ccc(-n2cnc3c(=O)[nH]c(N)nc32)cc1
inactive: [2] 98 % of control | [4] 98 % of control | [6] 92 % of control

Cc1ccc(NC(=O)c2cccc(C(=O)Nc3ccc(C)c(Cl)c3)c2)cc1Cl
inactive: [1] 91 % of control | endpoint: mean survival time, dose: 100.0 mg/kg/injection, schedule: Q04DX003 (ip), vehicle: Klucel (hydroxypropylcellulose) (HPC) 95 % of control | [3] 97 % of control | endpoint: mean survival time, dose: 200.0 mg/kg/injection, schedule: Q04DX003 (ip), vehicle: Klucel (hydroxypropylcellulose) (HPC) 96 % of control | [5] 92 % of control | endpoint: mean survival time, dose: 400.0 mg/kg/injection, schedule: Q04DX003 (ip), vehicle: Klucel (hydroxypropylcellulose) (HPC) 106 % of control
